Measured values reported in ChEMBL document CHEMBL3885881, “DrugMatrix”.

Organism: Rattus norvegicus
Assay: DrugMatrix - Regimen: Daily Repeat
Assay type: toxicity, organism-based, Sprague-Dawley
Parameters: regimen Daily Repeat, gender Male, age 6-8 weeks
Conditions: in vivo, po, route oral GAVAGE, vehicle 100 % WATER
[1] = 70 mg/kg, 72 h, tissue Blood, dose level Low, time 3 day
[2] = 70 mg/kg, 72 h, tissue Plasma, dose level Low, time 3 day
[3] = 70 mg/kg, 120 h, tissue Blood, dose level Low, time 5 day
[4] = 70 mg/kg, 120 h, tissue Plasma, dose level Low, time 5 day
[5] = 700 mg/kg, 72 h, tissue Blood, dose level High, time 3 day
[6] = 700 mg/kg, 72 h, tissue Plasma, dose level High, time 3 day
[7] = 700 mg/kg, 120 h, tissue Blood, dose level High, time 5 day
[8] = 700 mg/kg, 120 h, tissue Plasma, dose level High, time 5 day

Sequence: MANGANESE CHLORIDE ANHYDROUS
- ABSOLUTE BASOPHIL [1]: 0 CELLS/uL
- ABSOLUTE EOSINOPHIL [1]: 0 CELLS/uL
- ABSOLUTE LYMPHOCYTE [1]: 8843.67 CELLS/uL
- ABSOLUTE MONOCYTE [1]: 103.33 CELLS/uL
- ABSOLUTE SEGMENTED NEUTROPHIL [1]: 819.67 CELLS/uL
- BASOPHIL [1]: 0%
- EOSINOPHIL [1]: 0%
- ERYTHROCYTE COUNT [1]: 5.19 x10E6/uL
- HEMATOCRIT [1]: 32.17%
- HEMOGLOBIN [1]: 12.2 G/DL
- LEUKOCYTE COUNT [1]: 9.77 x10E3/uL
- LYMPHOCYTE [1]: 90%
- MEAN CORPUSCULAR HEMOGLOBIN [1]: 23.5 pg
- MEAN CORPUSCULAR HEMOGLOBIN CONCENTRATION [1]: 37.93 G/DL
- MEAN CORPUSCULAR VOLUME [1]: 61.97 fL
- MONOCYTE [1]: 0.67%
- NUCLEATED RED BLOOD CELLS [1]: 0 /100WBC
- PLATELET COUNT [1]: 1240.67 x10E3/uL
- ALANINE AMINOTRANSFERASE [2]: 53.33 u/L
- ALKALINE PHOSPHATASE [2]: 482 u/L
- ASPARTATE AMINOTRANSFERASE [2]: 91.67 u/L
- BLOOD UREA NITROGEN [2]: 13.33 mg/dL
- CARBON DIOXIDE [2]: 35.33 mmol/L
- CHLORIDE [2]: 99 MEQ/L
- CHOLESTEROL [2]: 84 mg/dL
- CREATINE PHOSPHOKINASE [2]: 442.33 u/L
- CREATININE [2]: 0.22 mg/dL
- GLUCOSE [2]: 139.33 mg/dL
- LACTATE DEHYDROGENASE [2]: 131 u/L
- PHOSPHORUS [2]: 12.07 mg/dL
- POTASSIUM [2]: 6.21 MEQ/L
- TOTAL BILIRUBIN [2]: 0.17 mg/dL
- TOTAL PROTEIN [2]: 6.27 G/DL
- URIC ACID [2]: 0.57 mg/dL
- ABSOLUTE BASOPHIL [3]: 0 CELLS/uL
- ABSOLUTE EOSINOPHIL [3]: 184.33 CELLS/uL
- ABSOLUTE MONOCYTE [3]: 189.67 CELLS/uL
- ABSOLUTE SEGMENTED NEUTROPHIL [3]: 2003 CELLS/uL
- BASOPHIL [3]: 0%
- EOSINOPHIL [3]: 1%
- ERYTHROCYTE COUNT [3]: 4.88 x10E6/uL
- HEMATOCRIT [3]: 30.07%
- HEMOGLOBIN [3]: 11.73 G/DL
- LEUKOCYTE COUNT [3]: 15.07 x10E3/uL
- LYMPHOCYTE [3]: 84%
- MEAN CORPUSCULAR HEMOGLOBIN [3]: 24.27 pg
- MEAN CORPUSCULAR HEMOGLOBIN CONCENTRATION [3]: 39.03 G/DL
- NEUTROPHIL [3]: 13.67%
- NUCLEATED RED BLOOD CELLS [3]: 0.33 /100WBC
- PLATELET COUNT [3]: 1245 x10E3/uL
- ALANINE AMINOTRANSFERASE [4]: 35.67 u/L
- ALBUMIN [4]: 3.9 G/DL
- ALKALINE PHOSPHATASE [4]: 338 u/L
- ASPARTATE AMINOTRANSFERASE [4]: 64.33 u/L
- BLOOD UREA NITROGEN [4]: 13.67 mg/dL
- CARBON DIOXIDE [4]: 31.67 mmol/L
- CHOLESTEROL [4]: 69.33 mg/dL
- CREATINE PHOSPHOKINASE [4]: 218 u/L
- CREATININE [4]: 0.22 mg/dL
- GLUCOSE [4]: 158.33 mg/dL
- LACTATE DEHYDROGENASE [4]: 105.67 u/L
- PHOSPHORUS [4]: 13.3 mg/dL
- POTASSIUM [4]: 6.22 MEQ/L
- TOTAL BILIRUBIN [4]: 0.17 mg/dL
- TOTAL PROTEIN [4]: 5.83 G/DL
- ABSOLUTE BASOPHIL [5]: 0 CELLS/uL
- ABSOLUTE EOSINOPHIL [5]: 33.67 CELLS/uL
- ABSOLUTE LYMPHOCYTE [5]: 10434.33 CELLS/uL
- ABSOLUTE MONOCYTE [5]: 178.67 CELLS/uL
- ABSOLUTE SEGMENTED NEUTROPHIL [5]: 1653.33 CELLS/uL
- BASOPHIL [5]: 0%
- EOSINOPHIL [5]: 0.33%
- ERYTHROCYTE COUNT [5]: 4.97 x10E6/uL
- HEMATOCRIT [5]: 30.43%
- HEMOGLOBIN [5]: 11.8 G/DL
- LEUKOCYTE COUNT [5]: 12.3 x10E3/uL
- LYMPHOCYTE [5]: 85.67%
- MEAN CORPUSCULAR HEMOGLOBIN [5]: 23.77 pg
- MEAN CORPUSCULAR HEMOGLOBIN CONCENTRATION [5]: 38.77 G/DL
- NEUTROPHIL [5]: 12.67%
- NUCLEATED RED BLOOD CELLS [5]: 0 /100WBC
- PLATELET COUNT [5]: 1357.33 x10E3/uL
- ALANINE AMINOTRANSFERASE [6]: 45 u/L
- ALBUMIN [6]: 3.77 G/DL
- ALKALINE PHOSPHATASE [6]: 329.67 u/L
- ASPARTATE AMINOTRANSFERASE [6]: 86.33 u/L
- BLOOD UREA NITROGEN [6]: 13.67 mg/dL
- CARBON DIOXIDE [6]: 36.33 mmol/L
- CHLORIDE [6]: 99 MEQ/L
- CHOLESTEROL [6]: 63.33 mg/dL
- CREATINE PHOSPHOKINASE [6]: 347.67 u/L
- CREATININE [6]: 0.26 mg/dL
- GLUCOSE [6]: 139.67 mg/dL
- LACTATE DEHYDROGENASE [6]: 119 u/L
- PHOSPHORUS [6]: 11.6 mg/dL
- POTASSIUM [6]: 5.86 MEQ/L
- SODIUM [6]: 145.53 MEQ/L
- TOTAL BILIRUBIN [6]: 0.17 mg/dL
- TOTAL PROTEIN [6]: 6.23 G/DL
- URIC ACID [6]: 0.47 mg/dL
- ABSOLUTE BASOPHIL [7]: 0 CELLS/uL
- ABSOLUTE EOSINOPHIL [7]: 0 CELLS/uL
- ABSOLUTE LYMPHOCYTE [7]: 14144.67 CELLS/uL
- ABSOLUTE MONOCYTE [7]: 257.33 CELLS/uL
- ABSOLUTE SEGMENTED NEUTROPHIL [7]: 3531.33 CELLS/uL
- BASOPHIL [7]: 0%
- EOSINOPHIL [7]: 0%
- ERYTHROCYTE COUNT [7]: 5.15 x10E6/uL
- HEMATOCRIT [7]: 30.93%
- HEMOGLOBIN [7]: 11.9 G/DL
- LEUKOCYTE COUNT [7]: 17.93 x10E3/uL
- LYMPHOCYTE [7]: 79.67%
- MEAN CORPUSCULAR HEMOGLOBIN [7]: 23.1 pg
- MEAN CORPUSCULAR VOLUME [7]: 60.03 fL
- NEUTROPHIL [7]: 19%
- NUCLEATED RED BLOOD CELLS [7]: 0 /100WBC
- PLATELET COUNT [7]: 1336.67 x10E3/uL
- ALANINE AMINOTRANSFERASE [8]: 40 u/L
- ALKALINE PHOSPHATASE [8]: 346.33 u/L
- ASPARTATE AMINOTRANSFERASE [8]: 68.67 u/L
- BLOOD UREA NITROGEN [8]: 12.67 mg/dL
- CARBON DIOXIDE [8]: 33.67 mmol/L
- CHOLESTEROL [8]: 76.33 mg/dL
- CREATINE PHOSPHOKINASE [8]: 209.67 u/L
- CREATININE [8]: 0.31 mg/dL
- GLUCOSE [8]: 139.67 mg/dL
- LACTATE DEHYDROGENASE [8]: 88.67 u/L
- POTASSIUM [8]: 5.7 MEQ/L
- TOTAL BILIRUBIN [8]: 0.17 mg/dL
- TOTAL PROTEIN [8]: 5.97 G/DL
- URIC ACID [8]: 0.4 mg/dL
